Key:
Type in all cases: functional
Mus musculus [1] = species on record: Mus musculus; assay: Compound was evaluated for low level mutagenicity
Mus musculus [2] = species on record: Mus musculus; assay: Compound was evaluated for Carcinogenicity based on concentration necessary to produce one tumor per mouse (Strain A)
Mus musculus [3] = species on record: Mus musculus; assay: Compound was evaluated for mutagenicity after threshold range
Mus musculus [4] = species on record: Mus musculus; assay: Compound was evaluated for Carcinogenicity to produce 0.5 tumors per mouse (B.5)

| Structure (SMILES) | Log 1/B+100 (Mus musculus [1]) | Log 1/B+1 (Mus musculus [2]) | Log 1/Th+200 (Mus musculus [3]) | Log 1/B.5 (Mus musculus [4]) |
| --- | --- | --- | --- | --- |
| NC(=O)Nc1cc(NC(N)=O)cc(N(CCCl)CCCl)c1 | 0.31 | 4.26 | -0.01 | 5.43 |
| ClCCN(CCCl)c1ccc(/C=C/c2ccccc2)cc1 | 1.99 | – | 2.04 | – |

From ChEMBL document CHEMBL1121662 (1981)
